Consider 1 compound from patent publication US7835013B2, “Interferometric detection system and method” (Vanderbilt University, priority 2007, dated 2010).

Structures are written as SMILES. pKd: −log10 of the molar value. Where two headings read alike, the source gives them in different places.

One test concerns the target T1, Calmodulin (CaM) (Homo sapiens, UniProt P0DP23).
T1 construct: purchased Sigma, St. Louis, Mo
The test can be described thus: BSI stop-flow label-free homogeneous binding to Calmodulin. The note with it: for pKd: 5 μM CaM, 12.5-100 μM Ca^2+, pH 7.5, 25° C.

Another test addresses Calmodulin (Homo sapiens, UniProt P0DP23). The note with it: read-out: published Kd Calmodulin-calcium ion; cited from earlier work.

As to `[Ca+2]` [Ca^2+], the “control: change in signal above that observed in the absence of excess EGTA” value at Calmodulin (CaM) (5 μM CaM and 100 μM Ca^2+, both with excess EGTA (400 μM)) was less than 3%. The pKd on Calmodulin (CaM) (read-out: Kd CaM-Ca^2+ from kinetic analysis (single exponential, least squares)) is 5.47; on Calmodulin (CaM) (read-out: Kd CaM-Ca^2+ from steady-state values, Prism software) it was 4.75; on Calmodulin, 5.00 to 6.00.

For orientation: pKd means −log10 of the Kd, conventionally taken in molar units.
